Measurements taken from patent US9187472B2 (AbbVie Inc., priority 2012, dated 2015).
pIC50: −log10 of the molar value.

Legend:
[1] = molecular target: NAMPT (Homo sapiens, UniProt P43490); assay: TR-FRET Binding Assay of NAMPT with PRPP; details: with 200 μM PRPP and 2.5 mM ATP; 2 nM NAMPT, 2 nM probe, 16 hours equilibration
In short: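 Read-out is TR-FRET after a 16 h equilibration allowing possible compound modification by the enzyme. Final mix: 2 nM NAMPT, 2 nM probe, 1 nM Tb-anti-His antibody, 200 μM PRPP, 2.5 mM ATP, 2% DMSO.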

[2] = molecular target: NAMPT (human, recombinant, C-terminally His-tagged) (Homo sapiens, UniProt P43490); assay: Time-Resolved Fluorescence Resonance Energy Transfer (TR-FRET) Binding Assay of NAMPT; details: without substrates; 6.8 nM NAMPT, 200 nM probe, 3 hours equilibration
In short: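 Competitive binding against an Oregon Green 488 tracer (200 nM), 6.8 nM His-tagged enzyme, 1 nM Tb antibody, 2% DMSO, 3 h at RT. IC50 derived from TR-FRET ratios.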

[3] = test system: PC3 cells; assay: NAMPT Cell Proliferation Assay; assay type: cell-based; details: Homo sapiens, PC-3, 120 h, 5 days incubation, cell viability by Cell Titer Glo
In short: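 Seed PC3 at 500 cells/well (RPMI, 10% HI-FBS), attach overnight; add compound, 10-fold series 10 μM → 1×10^−5 μM; incubate 5 d, 37° C/5% CO2; luminescent viability readout; fit % inhibition sigmoidally for IC50.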

Chain of NAMPT (P43490 whole entry): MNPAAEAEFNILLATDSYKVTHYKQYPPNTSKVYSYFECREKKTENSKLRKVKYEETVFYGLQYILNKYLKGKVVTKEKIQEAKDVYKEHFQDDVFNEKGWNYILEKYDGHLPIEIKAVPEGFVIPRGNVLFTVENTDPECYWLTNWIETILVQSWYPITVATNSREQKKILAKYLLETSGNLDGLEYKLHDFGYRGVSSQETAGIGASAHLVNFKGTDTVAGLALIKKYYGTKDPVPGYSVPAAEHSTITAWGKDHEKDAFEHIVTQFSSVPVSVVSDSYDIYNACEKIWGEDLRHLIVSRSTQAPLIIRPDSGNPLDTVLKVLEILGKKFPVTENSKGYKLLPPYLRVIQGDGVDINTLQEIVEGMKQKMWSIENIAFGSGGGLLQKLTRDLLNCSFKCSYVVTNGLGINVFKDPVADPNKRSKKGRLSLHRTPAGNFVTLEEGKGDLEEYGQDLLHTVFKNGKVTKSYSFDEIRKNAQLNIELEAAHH
Chain of NAMPT (human, recombinant, C-terminally His-tagged) (P43490 whole entry): as above

| Compound | pIC50 [1] | pIC50 [2] | pIC50 [3] |
| --- | --- | --- | --- |
| CCC(=O)C(=O)N1CCC(c2ccc(C(=O)NCc3ccn4ccnc4c3)cc2)CC1 [Example 518, N-(imidazo[1,2-a]pyridin-7-ylmethyl)-4-[1-(2-oxobutanoyl)piperidin-4-yl]benzamide] | 9.77 | 6.63 | 7.46 |
| Cc1cc(C(=O)N2CCC(c3ccc(C(=O)NCc4ccn5ccnc5c4)cc3)CC2)c(C)o1 [Example 519, 4-{1-[(2,5-dimethylfuran-3-yl)carbonyl]piperidin-4-yl}-N-(imidazo[1,2-a]pyridin-7-ylmethyl)benzamide] | 9.47 | 6.66 | 7.22 |
| N#Cc1ccc(C(=O)N2CCC(c3ccc(C(=O)NCc4ccn5ccnc5c4)cc3)CC2)cc1 [Example 520, 4-[1-(4-cyanobenzoyl)piperidin-4-yl]-N-(imidazo[1,2-a]pyridin-7-ylmethyl)benzamide] | 9.52 | 6.25 | 7.00 |
| N#Cc1cccc(C(=O)N2CCC(c3ccc(C(=O)NCc4ccn5ccnc5c4)cc3)CC2)c1 [Example 521, 4-[1-(3-cyanobenzoyl)piperidin-4-yl]-N-(imidazo[1,2-a]pyridin-7-ylmethyl)benzamide] | 9.53 | 6.38 | 7.03 |
| O=C(NCc1ccn2ccnc2c1)c1ccc(C2CCN(C(=O)c3cc(F)ccc3F)CC2)cc1 [Example 522, 4-[1-(2,5-difluorobenzoyl)piperidin-4-yl]-N-(imidazo[1,2-a]pyridin-7-ylmethyl)benzamide] | 9.70 | 7.24 | 8.17 |
| O=C(NCc1ccn2ccnc2c1)c1ccc(C2CCN(C(=O)c3cnccn3)CC2)cc1 [Example 523, N-(imidazo[1,2-a]pyridin-7-ylmethyl)-4-[1-(pyrazin-2-ylcarbonyl)piperidin-4-yl]benzamide] | 9.37 | 6.46 | 7.77 |
| Cc1ccsc1C(=O)N1CCC(c2ccc(C(=O)NCc3ccn4ccnc4c3)cc2)CC1 [Example 524, N-(imidazo[1,2-a]pyridin-7-ylmethyl)-4-{1-[(3-methylthiophen-2-yl)carbonyl]piperidin-4-yl}benzamide] | 9.77 | 7.61 | 8.61 |
| Cc1noc(C)c1C(=O)N1CCC(c2ccc(C(=O)NCc3ccn4ccnc4c3)cc2)CC1 [Example 525, 4-{1-[(3,5-dimethyl-1,2-oxazol-4-yl)carbonyl]piperidin-4-yl}-N-(imidazo[1,2-a]pyridin-7-ylmethyl)benzamide] | 9.67 | 7.06 | 8.17 |
| COc1cccc(C(=O)N2CCC(c3ccc(C(=O)NCc4ccn5ccnc5c4)cc3)CC2)c1 [Example 526, N-(imidazo[1,2-a]pyridin-7-ylmethyl)-4-[1-(3-methoxybenzoyl)piperidin-4-yl]benzamide] | 9.56 | 6.90 | 7.22 |
| O=C(NCc1ccn2ccnc2c1)c1ccc(C2CCN(C(=O)c3cccc(Cl)c3)CC2)cc1 [Example 527, 4-[1-(3-chlorobenzoyl)piperidin-4-yl]-N-(imidazo[1,2-a]pyridin-7-ylmethyl)benzamide] | 9.58 | 6.85 | 7.22 |
| COc1ccc(C(=O)N2CCC(c3ccc(C(=O)NCc4ccn5ccnc5c4)cc3)CC2)cc1 [Example 528, N-(imidazo[1,2-a]pyridin-7-ylmethyl)-4-[1-(4-methoxybenzoyl)piperidin-4-yl]benzamide] | 9.56 | 6.90 | 7.62 |
| O=C(NCc1ccn2ccnc2c1)c1ccc(C2CCN(C(=O)c3ccc(Cl)cc3)CC2)cc1 [Example 529, 4-[1-(4-chlorobenzoyl)piperidin-4-yl]-N-(imidazo[1,2-a]pyridin-7-ylmethyl)benzamide] | 9.55 | 6.61 | 6.64 |
| O=C(NCc1ccn2ccnc2c1)c1ccc(C2CCN(C(=O)c3cc(F)cc(F)c3)CC2)cc1 [Example 530, 4-[1-(3,5-difluorobenzoyl)piperidin-4-yl]-N-(imidazo[1,2-a]pyridin-7-ylmethyl)benzamide] | 9.10 | 6.42 | 7.09 |

Continued, values first:

| pIC50 [1] | pIC50 [2] | pIC50 [3] | Compound |
| --- | --- | --- | --- |
| 9.60 | 6.48 | 7.28 | O=C(NCc1ccn2ccnc2c1)c1ccc(C2CCN(C(=O)C3CC3)CC2)cc1 [Example 531, 4-[1-(cyclopropylcarbonyl)piperidin-4-yl]-N-(imidazo[1,2-a]pyridin-7-ylmethyl)benzamide] |
| 9.75 | 6.47 | 7.03 | CCC(=O)N1CCC(c2ccc(C(=O)NCc3ccn4ccnc4c3)cc2)CC1 [Example 532, N-(imidazo[1,2-a]pyridin-7-ylmethyl)-4-(1-propanoylpiperidin-4-yl)benzamide] |
| 9.77 | 7.00 | 7.76 | Cn1cccc1C(=O)N1CCC(c2ccc(C(=O)NCc3ccn4ccnc4c3)cc2)CC1 [Example 533, N-(imidazo[1,2-a]pyridin-7-ylmethyl)-4-{1-[(1-methyl-1H-pyrrol-2-yl)carbonyl]piperidin-4-yl}benzamide] |
| 9.60 | 6.84 | 8.29 | CC(C)CC(=O)N1CCC(c2ccc(C(=O)NCc3ccn4ccnc4c3)cc2)CC1 [Example 534, N-(imidazo[1,2-a]pyridin-7-ylmethyl)-4-[1-(3-methylbutanoyl)piperidin-4-yl]benzamide] |
| 9.49 | 6.53 | 7.55 | O=C(NCc1ccn2ccnc2c1)c1ccc(C2CCN(C(=O)c3ccncc3)CC2)cc1 [Example 535, N-(imidazo[1,2-a]pyridin-7-ylmethyl)-4-[1-(pyridin-4-ylcarbonyl)piperidin-4-yl]benzamide] |
| 9.69 | 7.11 | 8.52 | CC(C)C(C)C(=O)N1CCC(c2ccc(C(=O)NCc3ccn4ccnc4c3)cc2)CC1 (stereo not drawn) [Example 536, 4-[1-(2,3-dimethylbutanoyl)piperidin-4-yl]-N-(imidazo[1,2-a]pyridin-7-ylmethyl)benzamide] |
| 9.64 | 6.34 | 7.37 | O=C(NCc1ccn2ccnc2c1)c1ccc(C2CCN(C(=O)c3cccnc3)CC2)cc1 [Example 537, N-(imidazo[1,2-a]pyridin-7-ylmethyl)-4-[1-(pyridin-3-ylcarbonyl)piperidin-4-yl]benzamide] |
| 9.29 | 6.56 | 8.48 | CC1(C(=O)N2CCC(c3ccc(C(=O)NCc4ccn5ccnc5c4)cc3)CC2)CC1 [Example 538, N-(imidazo[1,2-a]pyridin-7-ylmethyl)-4-{1-[(1-methylcyclopropyl)carbonyl]piperidin-4-yl}benzamide] |
| 9.51 | 7.01 | 8.46 | COc1ccccc1C(=O)N1CCC(c2ccc(C(=O)NCc3ccn4ccnc4c3)cc2)CC1 [Example 539, N-(imidazo[1,2-a]pyridin-7-ylmethyl)-4-[1-(2-methoxybenzoyl)piperidin-4-yl]benzamide] |
| 9.52 | 6.58 | 7.13 | O=C(NCc1ccn2ccnc2c1)c1ccc(C2CCN(C(=O)CC(F)(F)F)C2)s1 (stereo not drawn) [Example 540, N-(imidazo[1,2-a]pyridin-7-ylmethyl)-5-[1-(3,3,3-trifluoropropanoyl)pyrrolidin-3-yl]thiophene-2-carboxamide] |
| 9.35 | 6.76 | 7.19 | CC(C)C(=O)N1CCC(c2ccc(C(=O)NCc3ccn4ccnc4c3)s2)C1 (stereo not drawn) [Example 541, N-(imidazo[1,2-a]pyridin-7-ylmethyl)-5-[1-(2-methylpropanoyl)pyrrolidin-3-yl]thiophene-2-carboxamide] |
| 9.47 | 7.45 | 8.54 | O=C(NCc1ccn2ccnc2c1)c1ccc(C2CCN(C(=O)c3ccccc3)C2)s1 (stereo not drawn) [Example 542, 5-(1-benzoylpyrrolidin-3-yl)-N-(imidazo[1,2-a]pyridin-7-ylmethyl)thiophene-2-carboxamide] |
| 9.42 | 5.83 | 6.41 | CC(C)C(=O)N1CCC(c2ncc(C(=O)NCc3ccn4ccnc4c3)s2)CC1 [Example 543, N-(imidazo[1,2-a]pyridin-7-ylmethyl)-2-[1-(2-methylpropanoyl)piperidin-4-yl]-1,3-thiazole-5-carboxamide] |
| 9.36 | 6.06 | 6.19 | CC(C)CC(=O)N1CCC(c2ncc(C(=O)NCc3ccn4ccnc4c3)s2)CC1 [Example 544, N-(imidazo[1,2-a]pyridin-7-ylmethyl)-2-[1-(3-methylbutanoyl)piperidin-4-yl]-1,3-thiazole-5-carboxamide] |
| 9.39 | 6.96 | 7.54 | O=C(NCc1ccn2ccnc2c1)c1cnc(C2CCN(C(=O)c3ccccc3)CC2)s1 [Example 545, 2-(1-benzoylpiperidin-4-yl)-N-(imidazo[1,2-a]pyridin-7-ylmethyl)-1,3-thiazole-5-carboxamide] |
| 7.63 | 6.63 | 5.61 | O=C(CC1CCCC1)Nc1ccc(C(=O)NCc2ccn3ncnc3c2)cc1 [Example 546, 4-[(cyclopentylacetyl)amino]-N-([1,2,4]triazolo[1,5-a]pyridin-7-ylmethyl)benzamide] |
